# Patent publication US20250304596A1, “PYRAZINE DERIVATIVES AND USES THEREOF” (FOGHORN THERAPEUTICS INC., priority 2022, published 2025)
# Tests used:
# [1] = target: T1, HiBit-BRM fusion protein (Homo sapiens, UniProt P51531); assay: HiBiT-BRM cell-based degradation assay (Nano-Glo HiBiT Lytic Detection, 24 h); conditions: stable HeLa cell line expressing HiBiT-BRM; for DC50: read-out: BRM HiBit Degradation IC50
# T1 construct: expressed in transfected cells
# Summary of the method: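 A stable HeLa line expressing HiBiT-BRM was treated for 24 h with compound in a 10-point, 3-fold series (30 μM final top dose). Remaining HiBiT-BRM was read by lytic LgBiT complementation luminescence. % degradation was normalised to DMSO (high control) and 2 μM reference BRM/BRG1 degrader (low control).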
# [2] = target: T2, HiBit-BRG1 fusion protein (Homo sapiens, UniProt P51532); assay: HiBiT-BRG1 cell-based degradation assay (Nano-Glo HiBiT Lytic Detection, 24 h); conditions: stable HeLa cell line expressing HiBit-BRG1 and LgBit; for Dmax: read-out: BRG1 HiBit Degradation Maximum (%); for DC50: read-out: BRMG1 HiBit Degradation IC50
# T2 construct: expressed in transfected cells
# T2 sequence (P51532 whole entry, the tested form may be a part): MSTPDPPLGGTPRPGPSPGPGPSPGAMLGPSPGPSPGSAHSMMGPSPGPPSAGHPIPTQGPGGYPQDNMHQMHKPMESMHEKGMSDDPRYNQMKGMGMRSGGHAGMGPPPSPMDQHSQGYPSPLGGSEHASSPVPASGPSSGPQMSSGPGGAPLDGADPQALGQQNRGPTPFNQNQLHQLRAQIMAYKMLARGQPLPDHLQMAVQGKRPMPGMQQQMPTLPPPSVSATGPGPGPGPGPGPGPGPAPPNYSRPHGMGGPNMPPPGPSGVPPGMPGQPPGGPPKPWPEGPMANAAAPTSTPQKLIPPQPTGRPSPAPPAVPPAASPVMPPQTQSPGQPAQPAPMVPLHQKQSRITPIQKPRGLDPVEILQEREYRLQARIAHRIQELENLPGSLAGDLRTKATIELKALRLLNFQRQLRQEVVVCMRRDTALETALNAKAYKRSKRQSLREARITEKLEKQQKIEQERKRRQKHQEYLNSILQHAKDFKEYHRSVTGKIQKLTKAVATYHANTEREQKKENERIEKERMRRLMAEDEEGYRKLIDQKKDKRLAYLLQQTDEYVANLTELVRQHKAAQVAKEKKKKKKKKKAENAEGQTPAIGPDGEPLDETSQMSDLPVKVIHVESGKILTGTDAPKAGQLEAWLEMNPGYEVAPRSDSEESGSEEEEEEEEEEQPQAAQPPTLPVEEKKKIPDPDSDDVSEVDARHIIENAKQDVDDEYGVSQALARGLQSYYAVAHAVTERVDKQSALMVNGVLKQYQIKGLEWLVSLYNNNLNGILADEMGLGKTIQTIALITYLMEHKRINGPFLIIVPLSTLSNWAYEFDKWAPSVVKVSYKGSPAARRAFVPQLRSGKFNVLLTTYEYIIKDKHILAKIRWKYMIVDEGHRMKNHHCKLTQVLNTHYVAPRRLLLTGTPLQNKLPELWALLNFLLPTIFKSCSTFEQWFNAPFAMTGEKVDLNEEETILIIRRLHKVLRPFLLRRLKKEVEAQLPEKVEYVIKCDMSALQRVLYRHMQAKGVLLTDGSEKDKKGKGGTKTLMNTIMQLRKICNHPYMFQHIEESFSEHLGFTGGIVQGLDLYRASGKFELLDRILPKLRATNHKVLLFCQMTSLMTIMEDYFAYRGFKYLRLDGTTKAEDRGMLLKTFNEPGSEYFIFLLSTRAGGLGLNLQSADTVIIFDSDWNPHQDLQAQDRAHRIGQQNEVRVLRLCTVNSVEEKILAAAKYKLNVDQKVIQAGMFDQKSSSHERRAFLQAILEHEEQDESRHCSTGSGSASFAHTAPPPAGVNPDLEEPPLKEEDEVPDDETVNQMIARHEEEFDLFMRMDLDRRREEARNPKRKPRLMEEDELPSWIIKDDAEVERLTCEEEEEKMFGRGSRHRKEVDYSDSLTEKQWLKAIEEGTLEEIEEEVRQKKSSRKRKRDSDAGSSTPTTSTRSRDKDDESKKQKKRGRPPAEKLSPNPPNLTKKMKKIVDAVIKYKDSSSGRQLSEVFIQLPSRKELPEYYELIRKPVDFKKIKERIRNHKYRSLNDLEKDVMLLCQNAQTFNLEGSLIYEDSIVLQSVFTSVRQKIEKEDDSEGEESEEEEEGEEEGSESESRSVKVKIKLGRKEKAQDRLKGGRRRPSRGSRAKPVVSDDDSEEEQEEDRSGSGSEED
# Summary of the method: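 HeLa cells stably expressing HiBit-BRG1 and LgBit, treated 24 h with 3-fold dilutions (10 points, duplicate, 30 μM final top dose). Luminescence read after Nano-Glo HiBiT lytic reagent; % degradation scaled between DMSO (high) and 2 μM reference BRM/BRG1 degrader (low control).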
# T1 sequence (P51531 whole entry, the tested form may be a part): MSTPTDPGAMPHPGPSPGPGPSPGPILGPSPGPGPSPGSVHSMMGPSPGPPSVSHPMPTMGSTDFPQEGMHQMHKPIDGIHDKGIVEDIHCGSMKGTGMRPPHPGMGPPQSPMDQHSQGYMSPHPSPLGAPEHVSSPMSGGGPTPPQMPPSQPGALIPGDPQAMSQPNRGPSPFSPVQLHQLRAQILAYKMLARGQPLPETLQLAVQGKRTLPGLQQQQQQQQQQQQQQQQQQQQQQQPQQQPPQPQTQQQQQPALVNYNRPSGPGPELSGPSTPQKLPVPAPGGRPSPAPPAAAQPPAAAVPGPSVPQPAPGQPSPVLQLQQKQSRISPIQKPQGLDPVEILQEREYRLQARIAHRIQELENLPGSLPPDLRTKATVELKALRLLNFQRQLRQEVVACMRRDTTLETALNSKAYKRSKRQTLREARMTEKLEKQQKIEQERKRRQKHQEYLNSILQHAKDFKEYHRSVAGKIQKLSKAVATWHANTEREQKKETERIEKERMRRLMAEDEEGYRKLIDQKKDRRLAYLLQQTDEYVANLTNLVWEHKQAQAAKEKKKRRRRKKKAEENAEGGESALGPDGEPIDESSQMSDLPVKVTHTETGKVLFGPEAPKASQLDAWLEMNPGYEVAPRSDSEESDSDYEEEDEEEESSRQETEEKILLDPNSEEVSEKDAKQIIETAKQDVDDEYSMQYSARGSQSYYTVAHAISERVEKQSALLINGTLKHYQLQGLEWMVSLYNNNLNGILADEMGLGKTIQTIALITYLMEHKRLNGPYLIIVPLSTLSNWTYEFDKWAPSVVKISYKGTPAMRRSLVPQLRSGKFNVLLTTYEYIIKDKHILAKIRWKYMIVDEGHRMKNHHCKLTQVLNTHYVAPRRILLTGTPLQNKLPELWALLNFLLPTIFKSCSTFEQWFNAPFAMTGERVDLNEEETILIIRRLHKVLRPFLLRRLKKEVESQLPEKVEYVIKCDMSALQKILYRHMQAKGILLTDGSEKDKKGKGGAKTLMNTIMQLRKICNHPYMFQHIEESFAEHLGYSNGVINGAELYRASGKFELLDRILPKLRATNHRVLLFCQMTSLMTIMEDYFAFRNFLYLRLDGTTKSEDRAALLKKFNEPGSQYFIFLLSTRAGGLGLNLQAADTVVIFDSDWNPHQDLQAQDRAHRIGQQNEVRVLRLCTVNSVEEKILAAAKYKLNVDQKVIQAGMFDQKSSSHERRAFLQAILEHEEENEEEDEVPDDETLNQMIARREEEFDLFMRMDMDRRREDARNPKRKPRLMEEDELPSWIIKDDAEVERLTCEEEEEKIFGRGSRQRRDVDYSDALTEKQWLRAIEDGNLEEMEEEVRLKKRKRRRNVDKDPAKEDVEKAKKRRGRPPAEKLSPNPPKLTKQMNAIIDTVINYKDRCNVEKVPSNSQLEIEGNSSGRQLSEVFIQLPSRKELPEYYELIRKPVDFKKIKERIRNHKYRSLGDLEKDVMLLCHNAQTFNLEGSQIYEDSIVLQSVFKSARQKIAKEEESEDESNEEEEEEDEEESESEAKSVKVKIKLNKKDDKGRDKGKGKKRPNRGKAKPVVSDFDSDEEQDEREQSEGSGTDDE
SMILES,DC50 [1],Dmax [2],DC50 [2],BRM HiBit Degradation Maximum (%) [1]
"Cc1ncsc1-c1ccc([C@H](C)NC(=O)[C@@H]2C[C@@H](O)CN2C(=O)[C@@H](c2cc(N3C[C@@H]4[C@H](C3)[C@H]4c3sc4nnc(-c5ccccc5O)cc4c3C)no2)C(C)C)cc1 [Compound 16, (2S,4R)-4-hydroxy-1-((R)-2-(3-((1R,5S,6R)-6-(3-(2-hydroxyphenyl)-5-methylthieno[2,3-c]pyridazin-6-yl)-3-azabicyclo[3.1.0]hexan-3-yl)isoxazol-5-yl)-3-methylbutanoyl)-N-((S)-1-(4-(4-methylthiazol-5-yl)phenyl)ethyl)pyrrolidine-2-carboxamide]",< 10 nM,> 50%,> 10 nM,A (“A” indicates maximum degradation ≥75%)
"Cc1ncsc1-c1ccc([C@H](C)NC(=O)[C@@H]2C[C@@H](O)CN2C(=O)[C@@H](c2cc(-c3cnc(N4CC[C@@H](c5sc6nnc(-c7ccccc7O)cc6c5C)[C@H](C)C4)nc3)no2)C(C)C)cc1 [Compound 25, (2S,4R)-4-hydroxy-1-((R)-2-(3-(2-((3S,4R)-4-(3-(2-hydroxyphenyl)-5-methylthieno[2,3-c]pyridazin-6-yl)-3-methylpiperidin-1-yl)pyrimidin-5-yl)isoxazol-5-yl)-3-methylbutanoyl)-N-((S)-1-(4-(4-methylthiazol-5-yl)phenyl)ethyl)pyrrolidine-2-carboxamide]",> 10 nM,< 50%,> 1000 nM,A (“A” indicates maximum degradation ≥75%)
"Cc1cc(N2CCC(c3sc4nnc(-c5ccccc5O)cc4c3C)CC2)ncc1-c1cc([C@H](C(=O)N2C[C@H](O)C[C@H]2C(=O)N[C@@H](C)c2ccc(-c3scnc3C)cc2)C(C)C)on1 [Compound 38, (2S,4R)-4-hydroxy-1-((R)-2-(3-(6-(4-(3-(2-hydroxyphenyl)-5-methylthieno[2,3-c]pyridazin-6-yl)piperidin-1-yl)-4-methylpyridin-3-yl)isoxazol-5-yl)-3-methylbutanoyl)-N-((S)-1-(4-(4-methylthiazol-5-yl)phenyl)ethyl)pyrrolidine-2-carboxamide]",< 10 nM,< 50%,> 1000 nM,A (“A” indicates maximum degradation ≥75%)
"Cc1ncsc1-c1ccc([C@H](C)NC(=O)[C@@H]2C[C@@H](O)CN2C(=O)[C@@H](c2cc(C#Cc3sc4nnc(-c5ccccc5O)cc4c3C)no2)C(C)C)cc1 (single isomer, unassigned) [Compound 37]",> 100 nM,> 50%,> 1000 nM,A (“A” indicates maximum degradation ≥75%)
"Cc1ncsc1-c1ccc([C@H](C)NC(=O)[C@@H]2C[C@@H](O)CN2C(=O)[C@@H](c2cc(-c3cnc(N4CCC(O)(c5sc6nnc(-c7ccccc7O)cc6c5C)CC4)nc3)no2)C(C)C)cc1 [Compound 52, (2S,4R)-4-hydroxy-1-((R)-2-(3-(2-(4-hydroxy-4-(3-(2-hydroxyphenyl)-5-methylthieno[2,3-c]pyridazin-6-yl)piperidin-1-yl)pyrimidin-5-yl)isoxazol-5-yl)-3-methylbutanoyl)-N-((S)-1-(4-(4-methylthiazol-5-yl)phenyl)ethyl)pyrrolidine-2-carboxamide]",> 10 nM,< 50%,> 1000 nM,B (“B” indicates maximum degradation ≥50%)
"Cc1ncsc1-c1ccc([C@H](C)NC(=O)[C@@H]2C[C@@H](O)CN2C(=O)[C@@H](c2cc(-c3cnc(N4C[C@H]5C[C@@H](C4)[C@@H]5c4cc5cc(-c6ccccc6O)nnc5s4)nc3)no2)C(C)C)cc1 [Compound 18, (2S,4R)-4-hydroxy-1-((R)-2-(3-(2-((1R,5S,6R)-6-(3-(2-hydroxyphenyl)thieno[2,3-c]pyridazin-6-yl)-3-azabicyclo[3.1.1]heptan-3-yl)pyrimidin-5-yl)isoxazol-5-yl)-3-methylbutanoyl)-N-((S)-1-(4-(4-methylthiazol-5-yl)phenyl)ethyl)pyrrolidine-2-carboxamide]",< 10 nM,< 50%,> 1000 nM,A (“A” indicates maximum degradation ≥75%)

# Further lines, with some results ahead:
DC50 [1],Dmax [2],DC50 [2],SMILES,BRM HiBit Degradation Maximum (%) [1]
< 10 nM,> 50%,> 10 nM,"Cc1ncsc1-c1ccc([C@H](C)NC(=O)[C@@H]2C[C@@H](O)CN2C(=O)[C@@H](c2cc(C3CCN(c4cnc(N5CCC(c6sc7nnc(-c8ccccc8O)cc7c6C)CC5)nc4)CC3)no2)C(C)C)cc1 [Compound 100, (2S,4R)-4-hydroxy-1-[(2R)-2-{3-[1-(2-{4-[3-(2-hydroxyphenyl)-5-methylthieno[2,3-c]pyridazin-6-yl]piperidin-1-yl}pyrimidin-5-yl)piperidin-4-yl]-1,2-oxazol-5-yl}-3-methylbutanoyl]-N-[(1S)-1-[4-(4-methyl-1,3-thiazol-5-yl)phenyl]ethyl]pyrrolidine-2-carboxamide]",A (“A” indicates maximum degradation ≥75%)
< 10 nM,> 75%,> 10 nM,"Cc1ncsc1-c1ccc([C@H](C)NC(=O)[C@@H]2C[C@@H](O)CN2C(=O)C(c2cc([C@H]3CC[C@H](c4cnc(N5CCC(c6sc7nnc(-c8ccccc8O)cc7c6C)CC5)nc4)CC3)no2)C(C)C)cc1 (stereo partly drawn) [Compound 64, (2S,4R)-4-hydroxy-1-((R)-2-(3-((1s,4S)-4-(2-(4-(3-(2-hydroxyphenyl)-5-methylthieno[2,3-c]pyridazin-6-yl)piperidin-1-yl)pyrimidin-5-yl)cyclohexyl)isoxazol-5-yl)-3-methylbutanoyl)-N—((S)-1-(4-(4-methylthiazol-5-yl)phenyl)ethyl)pyrrolidine-2-carboxamide]",A (“A” indicates maximum degradation ≥75%)
> 10 nM,< 50%,–,"Cc1ncsc1-c1ccc([C@H](C)NC(=O)[C@@H]2C[C@@H](O)CN2C(=O)[C@@H](c2cc(N3CCC4(CC[C@H](c5sc6nnc(-c7ccccc7O)cc6c5C)C4)CC3)no2)C(C)C)cc1 [Compound 81, (2S,4R)-4-hydroxy-1-((R)-2-(3-((S)-2-(3-(2-hydroxyphenyl)-5-methylthieno[2,3-c]pyridazin-6-yl)-8-azaspiro[4.5]decan-8-yl)isoxazol-5-yl)-3-methylbutanoyl)-N-((S)-1-(4-(4-methylthiazol-5-yl)phenyl)ethyl)pyrrolidine-2-carboxamide]",A (“A” indicates maximum degradation ≥75%)
> 10 nM,< 50%,–,"Cc1cc(-c2cc([C@H](C(=O)N3C[C@H](O)C[C@H]3C(=O)N[C@@H](C)c3ccc(-c4scnc4C)cc3)C(C)C)on2)cnc1N1CC[C@@H](c2sc3nnc(-c4ccccc4O)cc3c2C)C1 [Compound 101, (2S,4R)-4-hydroxy-1-((R)-2-(3-(6-((R)-3-(3-(2-hydroxyphenyl)-5-methylthieno[2,3-c]pyridazin-6-yl)pyrrolidin-1-yl)-5-methylpyridin-3-yl)isoxazol-5-yl)-3-methylbutanoyl)-N-((S)-1-(4-(4-methylthiazol-5-yl)phenyl)ethyl)pyrrolidine-2-carboxamide]",A (“A” indicates maximum degradation ≥75%)
< 10 nM,< 50%,> 1000 nM,"Cc1ncsc1-c1ccc([C@H](C)NC(=O)[C@@H]2C[C@@H](O)CN2C(=O)[C@@H](c2cc(-c3ccc(N4CCC(c5sc6nnc(-c7ccccc7O)cc6c5C)CC4)nc3)no2)C(C)C)cc1 [Compound 59, (2S,4R)-4-hydroxy-1-((R)-2-(3-(6-(4-(3-(2-hydroxyphenyl)-5-methylthieno[2,3-c]pyridazin-6-yl)piperidin-1-yl)pyridin-3-yl)isoxazol-5-yl)-3-methylbutanoyl)-N-((S)-1-(4-(4-methylthiazol-5-yl)phenyl)ethyl)pyrrolidine-2-carboxamide]",A (“A” indicates maximum degradation ≥75%)
< 10 nM,< 50%,–,"Cc1ncsc1-c1ccc([C@H](C)NC(=O)[C@@H]2C[C@@H](O)CN2C(=O)[C@@H](c2cc(-c3ccc(N4CCC(c5sc6nnc(-c7ccccc7O)cc6c5C)CC4)c(F)c3)no2)C(C)C)cc1 [Compound 103, (2S,4R)-1-((R)-2-(3-(3-fluoro-4-(4-(3-(2-hydroxyphenyl)-5-methylthieno[2,3-c]pyridazin-6-yl)piperidin-1-yl)phenyl)isoxazol-5-yl)-3-methylbutanoyl)-4-hydroxy-N-((S)-1-(4-(4-methylthiazol-5-yl)phenyl)ethyl)pyrrolidine-2-carboxamide]",A (“A” indicates maximum degradation ≥75%)
< 10 nM,> 75%,> 10 nM,"Cc1ncsc1-c1ccc([C@H](C)NC(=O)[C@@H]2C[C@@H](O)CN2C(=O)[C@@H](c2cc(-c3ccnc(N4CCC(c5sc6nnc(-c7ccccc7O)cc6c5C)CC4)n3)no2)C(C)C)cc1 [Compound 58, (2S,4R)-4-hydroxy-1-((R)-2-(3-(2-(4-(3-(2-hydroxyphenyl)-5-methylthieno[2,3-c]pyridazin-6-yl)piperidin-1-yl)pyrimidin-4-yl)isoxazol-5-yl)-3-methylbutanoyl)-N-((S)-1-(4-(4-methylthiazol-5-yl)phenyl)ethyl)pyrrolidine-2-carboxamide]",A (“A” indicates maximum degradation ≥75%)
